Reference: patent US20240382399A1, “ANTISEBOGENIC COMPOSITION, FORMULATION AND USE OF THE COMPOSITION” (CHEMYUNION LTDA., priority 2021, published 2024)

Key:
5-alpha reductase type 1 = experiment: Expression of 5-alpha reductase type 1 in cultured human keratinocytes (real-time PCR); format: cell-based; conditions: Testosterone 1.10^-8 mol/L, 24 hours; compared to the baseline control, P<0.05
Method: The objective of the test was to evaluate the effects of P19/7 on the expression of 5-alpha reductase type 1 in cultured human keratinocytes. The enzyme 5-alpha-reductase […] acts in the conversion of testosterone into dihydrotestosterone (DHT), a steroid responsible for modulating sebaceous secretion.
To carry out the assay, commercially obtained human keratinocytes (Rio de Janeiro Cell Bank—BCRJ) were cultivated in specific culture media and maintained in a humid incubator at 37° C. containing 5% CO2. When they reached confluence (3rd to 5th passage), cells were seeded in a 6-well plate and incubated with 0.0049% (w/v) P19/7+Testosterone (1.10^−8 mol/L) or Testosterone (1.10^−8 mol/L) for a period of 24 hours. After 24 hours of incubation, RNA was extracted using the PureLink RNA Mini Kit (Thermo Fisher) and quantified using the NanoDrop Lite spectrophotometer (Thermo Scientific). Tests were performed on a StepOnePlus device (Applied Byosystems). To perform real-time PCR, a commercially available analysis system was used (TaqMan® Gene Expression Assays; SRD5A1: (HS00971643_G1, 5-alpha reductase type 1); B2M: Hs00984230_m1; Applied Biosystems), with primers and probes based on sequence consensus using the TaqMan® RNA-to-CT™ 1-step kit (Applied Byosystems). […] Gene expression of 5-alpha reductase was calculated according to Pfaffl (2001).

C. acnes = conditions: concentrations of 6.9 mM (1 mg/mL) and 8.6 mM (1 mg/mL); cited from earlier work

Row | Compound | increase of relative expression of type 1 5-alpha-reductase (5-alpha reductase type 1) [%] | inhibitory effect on the growth of C. acnes (C. acnes)
1 | C[C@]12CC[C@H]3[C@@H](CCC4=CC(=O)CC[C@@]43C)[C@@H]1CC[C@@H]2O [testosterone, Testosterone] | 13 | –
2 | CCCCCCCC(=O)O [caprylic acid] | – | no apparent inhibitory effect
